Laboratory results from the supplement of paper PMC4862054.

How the values were obtained:
Conditions in all cases: incubation time: 72 h
DU-4475 [1] = experiment: normalised viability (% of control), CellTiter-Blue; higher = more viable cells (about 100 = DMSO control)
Method: (§1)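 DSRT, CellTiter-Blue viability, 72 h incubation. Signal is normalised to DMSO and benzethonium chloride controls. Value is the normalised response at dose 7.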

HDQ-P1 [2] = experiment: as above
Method: as §1

MDA-MB-453 [3] = experiment: as above
Method: as §1

CAL-51 [4] = experiment: as above
Method: as §1

BT-474 [5] = experiment: drug sensitivity score (DSS), CellTox Green (DSS (AUC-based score)); higher = stronger drug effect (viability inhibition or cytotoxicity); extreme values may be limits of the assay
Procedure, shortened: (§2)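 After 72 h of incubation in 384-well plates with compound at 5 concentrations (10-fold steps, 10,000-fold range set per compound), breast cancer cell lines seeded in 20 µl suspension were read first for CellTox Green fluorescence at 485/520 nm. CellTiter-Glo luminescence was measured next, after 10 min at room temperature. Normalisation on each plate used 0.1 % DMSO and a positive kill control, and the drug sensitivity score was computed from the area under the fitted dose-response curve.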

HCC1599 [6] = experiment: as above
Procedure, shortened: as §2

HCC1143 [7] = experiment: as above
Procedure, shortened: as §2

MCF-10A = experiment: drug sensitivity score (DSS), CellTiter-Glo (DSS (AUC-based score)); higher = stronger drug effect (viability inhibition or cytotoxicity); extreme values may be limits of the assay
Procedure, shortened: as §2

BT-474 [8] = experiment: as above
Procedure, shortened: as §2

HCC1599 [9] = experiment: as above
Procedure, shortened: as §2

BT-549 = experiment: as above
Procedure, shortened: as §2

DU-4475 [10] = experiment: as above
Procedure, shortened: as §2

HDQ-P1 [11] = experiment: as above
Procedure, shortened: as §2

CAL-120 = experiment: as above
Procedure, shortened: as §2

MDA-MB-453 [12] = experiment: as above
Procedure, shortened: as §2

CAL-85-1 = experiment: as above
Procedure, shortened: as §2

CAL-51 [13] = experiment: as above
Procedure, shortened: as §2

MDA-MB-468 = experiment: as above
Procedure, shortened: as §2

HCC1143 [14] = experiment: as above
Procedure, shortened: as §2

MDA-MB-436 = experiment: as above
Procedure, shortened: as §2

MFM-223 = experiment: as above
Procedure, shortened: as §2

Hs578T = experiment: as above
Procedure, shortened: as §2

SK-BR-3 = experiment: as above
Procedure, shortened: as §2

CAL-148 = experiment: as above
Procedure, shortened: as §2

MDA-MB-231 = experiment: as above
Procedure, shortened: as §2

HCC1937 = experiment: as above
Procedure, shortened: as §2

## C=CC(=O)N1CCC[C@@H](n2nc(-c3ccc(Oc4ccccc4)cc3)c3c(N)ncnc32)C1
DU-4475 [1]; 100 nM
  normalised viability: 92.4%
HDQ-P1 [2]; 100 nM
  normalised viability: 111%
MDA-MB-453 [3]; 100 nM
  normalised viability: 39.5%
CAL-51 [4]; 100 nM
  normalised viability: 91.9%

## CC(=O)Nc1cccc(-n2c(=O)n(C3CC3)c(=O)c3c(Nc4ccc(I)cc4F)n(C)c(=O)c(C)c32)c1
DU-4475 [1]; 25 nM
  normalised viability: -0.2%
HDQ-P1 [2]; 25 nM
  normalised viability: 63.6%
MDA-MB-453 [3]; 25 nM
  normalised viability: 71.8%
CAL-51 [4]; 25 nM
  normalised viability: 69%

## CCc1cncnc1N1CCN(Cc2nc3ccc(C(F)(F)F)cc3[nH]2)CC1
DU-4475 [1]; 1000 nM
  normalised viability: 101%
HDQ-P1 [2]; 1000 nM
  normalised viability: 95.9%
MDA-MB-453 [3]; 1000 nM
  normalised viability: 96.5%
CAL-51 [4]; 1000 nM
  normalised viability: 87%
BT-474 [5]
  drug sensitivity score: 0
HCC1599 [6]
  drug sensitivity score: 0
HCC1143 [7]
  drug sensitivity score: 0
MCF-10A
  drug sensitivity score: 0
BT-474 [8]
  drug sensitivity score: 0.467
HCC1599 [9]
  drug sensitivity score: 0
BT-549
  drug sensitivity score: 1.94
DU-4475 [10]
  drug sensitivity score: 0
HDQ-P1 [11]
  drug sensitivity score: 0
CAL-120
  drug sensitivity score: 0.0627
MDA-MB-453 [12]
  drug sensitivity score: 1.08
CAL-85-1
  drug sensitivity score: 0
CAL-51 [13]
  drug sensitivity score: 7.14
MDA-MB-468
  drug sensitivity score: 2.68
HCC1143 [14]
  drug sensitivity score: 0
MDA-MB-436
  drug sensitivity score: 0
MFM-223
  drug sensitivity score: 0
Hs578T
  drug sensitivity score: 0
SK-BR-3
  drug sensitivity score: 0
CAL-148
  drug sensitivity score: 0
MDA-MB-231
  drug sensitivity score: 0
HCC1937
  drug sensitivity score: 0

## Cc1cnc(NC(=O)Nc2cc(Br)c(C)cc2OC[C@@H]2CNCCO2)cn1
DU-4475 [1]; 100 nM
  normalised viability: 109%
HDQ-P1 [2]; 100 nM
  normalised viability: 110%
MDA-MB-453 [3]; 100 nM
  normalised viability: 88.7%
CAL-51 [4]; 100 nM
  normalised viability: 91.2%

## NCCCNCCSP(=O)(O)O [Amifostine]
DU-4475 [1]; 1000 nM
  normalised viability: 82.7%
HDQ-P1 [2]; 1000 nM
  normalised viability: 89.8%
MDA-MB-453 [3]; 1000 nM
  normalised viability: 92.9%
CAL-51 [4]; 1000 nM
  normalised viability: 109%

## CC[C@@H]1C(=O)N(C)c2cnc(Nc3ccc(C(=O)NC4CCN(C)CC4)cc3OC)nc2N1C1CCCC1 [BI 2536]
DU-4475 [1]; 100 nM
  normalised viability: 22.3%
HDQ-P1 [2]; 100 nM
  normalised viability: 57.7%
MDA-MB-453 [3]; 100 nM
  normalised viability: 29.9%
CAL-51 [4]; 100 nM
  normalised viability: 12.1%
BT-474 [5]
  drug sensitivity score: 0
HCC1599 [6]
  drug sensitivity score: 0
HCC1143 [7]
  drug sensitivity score: 0
MCF-10A
  drug sensitivity score: 9.18
BT-474 [8]
  drug sensitivity score: 8.94
HCC1599 [9]
  drug sensitivity score: 12.4
BT-549
  drug sensitivity score: 21.3
DU-4475 [10]
  drug sensitivity score: 7.02
HDQ-P1 [11]
  drug sensitivity score: 4.76
CAL-120
  drug sensitivity score: 11.2
MDA-MB-453 [12]
  drug sensitivity score: 11.5
CAL-85-1
  drug sensitivity score: 14.1
CAL-51 [13]
  drug sensitivity score: 17.7
MDA-MB-468
  drug sensitivity score: 19.5
HCC1143 [14]
  drug sensitivity score: 15.7
MDA-MB-436
  drug sensitivity score: 14
MFM-223
  drug sensitivity score: 16.7
Hs578T
  drug sensitivity score: 13.3
SK-BR-3
  drug sensitivity score: 25.7
CAL-148
  drug sensitivity score: 5.51
MDA-MB-231
  drug sensitivity score: 13.3
HCC1937
  drug sensitivity score: 0

## CC[C@H](Nc1ncnc2[nH]cnc12)c1nc2cccc(F)c2c(=O)n1-c1ccccc1 [CAL-101]
DU-4475 [1]; 1000 nM
  normalised viability: 87.8%
HDQ-P1 [2]; 1000 nM
  normalised viability: 82.4%
MDA-MB-453 [3]; 1000 nM
  normalised viability: 87.7%
CAL-51 [4]; 1000 nM
  normalised viability: 81.9%

## O=C(O)CCCCC(CCSCc1ccccc1)SCc1ccccc1 (configuration not stated) [CPI-613]
BT-474 [5]
  drug sensitivity score: 0
HCC1599 [6]
  drug sensitivity score: 0
HCC1143 [7]
  drug sensitivity score: 0
MCF-10A
  drug sensitivity score: 0
BT-474 [8]
  drug sensitivity score: 0
HCC1599 [9]
  drug sensitivity score: 0
BT-549
  drug sensitivity score: 0
DU-4475 [10]
  drug sensitivity score: 0
HDQ-P1 [11]
  drug sensitivity score: 0
CAL-120
  drug sensitivity score: 0
MDA-MB-453 [12]
  drug sensitivity score: 0
CAL-85-1
  drug sensitivity score: 0
CAL-51 [13]
  drug sensitivity score: 0
MDA-MB-468
  drug sensitivity score: 0
HCC1143 [14]
  drug sensitivity score: 0
MDA-MB-436
  drug sensitivity score: 0
MFM-223
  drug sensitivity score: 0
Hs578T
  drug sensitivity score: 0
SK-BR-3
  drug sensitivity score: 0
CAL-148
  drug sensitivity score: 0
MDA-MB-231
  drug sensitivity score: 0
HCC1937
  drug sensitivity score: 0

## O=C(/C=C/c1cccnc1)NCCCCC1CCN(C(=O)c2ccccc2)CC1 [Daporinad]
BT-474 [5]
  drug sensitivity score: 0
HCC1599 [6]
  drug sensitivity score: 0
HCC1143 [7]
  drug sensitivity score: 0
MCF-10A
  drug sensitivity score: 23.2
BT-474 [8]
  drug sensitivity score: 13.4
HCC1599 [9]
  drug sensitivity score: 29.4
BT-549
  drug sensitivity score: 0
DU-4475 [10]
  drug sensitivity score: 25.2
HDQ-P1 [11]
  drug sensitivity score: 18
CAL-120
  drug sensitivity score: 20.9
MDA-MB-453 [12]
  drug sensitivity score: 26.8
CAL-85-1
  drug sensitivity score: 22
CAL-51 [13]
  drug sensitivity score: 0
MDA-MB-468
  drug sensitivity score: 30
HCC1143 [14]
  drug sensitivity score: 22.2
MDA-MB-436
  drug sensitivity score: 8.81
MFM-223
  drug sensitivity score: 31.4
Hs578T
  drug sensitivity score: 26.8
SK-BR-3
  drug sensitivity score: 0
CAL-148
  drug sensitivity score: 6.26
MDA-MB-231
  drug sensitivity score: 14.8
HCC1937
  drug sensitivity score: 21.4

## O=C(/C=C/c1cccnc1)NCCCCC1CCN(C(=O)c2ccccc2)CC1 [FK-866]
DU-4475 [1]; 100 nM
  normalised viability: 6.4%
HDQ-P1 [2]; 100 nM
  normalised viability: 48.9%
MDA-MB-453 [3]; 100 nM
  normalised viability: 21.1%
CAL-51 [4]; 100 nM
  normalised viability: 44.3%

## CC[C@H](Nc1ncnc2[nH]cnc12)c1nc2cccc(F)c2c(=O)n1-c1ccccc1 [GS-1101]
BT-474 [5]
  drug sensitivity score: 0
HCC1599 [6]
  drug sensitivity score: 0
HCC1143 [7]
  drug sensitivity score: 0
MCF-10A
  drug sensitivity score: 0
BT-474 [8]
  drug sensitivity score: 2.65
HCC1599 [9]
  drug sensitivity score: 0
BT-549
  drug sensitivity score: 2.49
DU-4475 [10]
  drug sensitivity score: 0
HDQ-P1 [11]
  drug sensitivity score: 1.93
CAL-120
  drug sensitivity score: 1.34
MDA-MB-453 [12]
  drug sensitivity score: 0
CAL-85-1
  drug sensitivity score: 0
CAL-51 [13]
  drug sensitivity score: 0
MDA-MB-468
  drug sensitivity score: 2.6
HCC1143 [14]
  drug sensitivity score: 0
MDA-MB-436
  drug sensitivity score: 3.18
MFM-223
  drug sensitivity score: 0
Hs578T
  drug sensitivity score: 0
SK-BR-3
  drug sensitivity score: 0
CAL-148
  drug sensitivity score: 0
MDA-MB-231
  drug sensitivity score: 1.82
HCC1937
  drug sensitivity score: 0
